# Data as given in paper PMC12549899 (Nature Communications, 2025).
# Values joined by “and” are separate entries in the source; they are usually repeats but may differ in a detail not shown here. Identical values can stand only once.
# Target: T1, DrOTOP1 A274W (Danio rerio, UniProt Q7ZWK8, A274W)
# T1 construct: A previously generated codon-optimized full-length DrOTOP1[8]; (UniProt: Q7ZWK8) construct; expressed in transfected cells; host or cells: HEK-293 (CRL-1573, ATCC)
# T1 sequence (Q7ZWK8 1-586 A274W): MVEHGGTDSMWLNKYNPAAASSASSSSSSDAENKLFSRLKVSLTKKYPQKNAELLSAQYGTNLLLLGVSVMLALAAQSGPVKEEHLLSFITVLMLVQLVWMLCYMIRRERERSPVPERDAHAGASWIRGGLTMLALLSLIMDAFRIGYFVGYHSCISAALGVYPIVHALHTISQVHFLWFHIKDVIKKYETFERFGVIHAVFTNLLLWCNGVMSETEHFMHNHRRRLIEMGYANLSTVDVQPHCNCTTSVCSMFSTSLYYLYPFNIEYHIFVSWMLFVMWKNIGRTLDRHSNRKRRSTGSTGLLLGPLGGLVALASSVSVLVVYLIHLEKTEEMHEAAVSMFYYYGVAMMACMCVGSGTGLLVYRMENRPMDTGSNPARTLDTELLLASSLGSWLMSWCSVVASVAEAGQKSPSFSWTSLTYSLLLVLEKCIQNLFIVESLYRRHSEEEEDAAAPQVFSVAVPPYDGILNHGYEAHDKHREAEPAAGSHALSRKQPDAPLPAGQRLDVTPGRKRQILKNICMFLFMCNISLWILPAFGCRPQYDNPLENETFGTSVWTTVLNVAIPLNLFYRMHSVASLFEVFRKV
# Assay: Whole-cell patch-clamp, inhibition of acid-evoked currents, DrOTOP1 A274W
# Type: cell-based, zebrafish (Danio rerio)
# Text: We next tested mutations of the central site (L205W, A274W, F277A, E384A L385W, A388W). V201W and S389W, two additional central site mutations, were excluded from the study due to complete loss of channel activity. Mutation of E384 to alanine is expected to disrupt potential hydrogen bonding with C2.2. Of note, E384 is one of the few charged residues in the central pocket and could form a salt bridge with K281, that could also be affected by the mutation. Additionally, in our DrOTOP1_C2.2 structure, we observed that F277 underwent a substantial rearrangement, likely to avoid steric clash and accommodate C2.2 binding. Thus, we introduced the F277A mutation to test if removing this steric clash would enhance C2.2 inhibition.
# HEK-293 cells (CRL-1573, ATCC) were cultured in DMEM (Thermofisher 11995073) containing 10% fetal bovine serum (Life Technology 16000044) and Penicillin-Streptomycin (100 I.U./mL) and (100 µg/mL), respectively. Cells were transfected with WT DrOTOP1 or mutant DrOTOP1 channels in 35 mm petri dishes, with ~ 500 ng DNA and 2 μL TransIT-LT1 transfection reagent (Mirus Bio Corporation, Cat # MIR2300) following the manufacturer’s protocol. All constructs were subcloned into a pcDNA3.1 vector that adds an N-terminal fusion tag consisting of an octahistidine tag followed by eGFP, a Gly-Thr-Gly-Thr linker and a 3C protease cleavage site ([…]) followed by WT DrOTOP1, WT mOTOP1, WT hOTOP1, or mutated DrOTOP1. Point mutations were generated via In-Fusion Cloning (Takara) using single-stranded DNA primers generated through IDT and sequence confirmed by Sanger sequencing (GeneWiz).
# Whole-cell patch-clamp recording was performed as previously described[6],[22],[25]. Recordings were made with an Axopatch 200B amplifier, digitized with a Digidata 1322a 16-bit data acquisition system, acquired with pClamp 8.2 and analyzed with Clampfit 10 (Molecular Devices). Recordings were sampled at 5 kHz and filtered at 1 kHz. Patch Pipettes with resistance of […] were fabricated from borosilicate glass, and only recordings with a giga-Ohm seal were used in analysis. Membrane potential was held at −80 mV for the duration of recordings. At the beginning of recordings and between, cells were washed with Tyrode’s solution (see below). Once a giga-Ohm seal was reached, cells were lifted and placed in front of microcapillary tubes controlled by a Fast-Step perfusion system (Warner Instruments) so that extracellular solutions could be rapidly exchanged during each experiment.
# Standard Tyrode’s solution consisted of 145 mM NaCl, 5 mM KCl, MgCl2, 2 mM CaCl2, 20 mM D-Glucose, and 10 mM HEPES (for pH 7.4). All other extracellular patch-clamp solutions contained 160 mM NMDG-Cl, 2 mM CaCl2, and the following buffers: 10 mM HEPES (for pH 7.4), 10 mM MES (for pH 6.5-5.5), 10 mM CHES for pH 10, and 10 mM HomoPIPES for (pH 5.0). pH adjusted with HCl. When adding compounds to extracellular solutions, the concentration of DMSO in solution was never higher than 0.3%. […]
# All data are presented as mean ± SEM unless otherwise noted, and each data point represents an independent replicant. Inhibition of compounds was quantified as ((I2peak-I1)/(I2peak))*100, where I1 is the current immediately before wash-off and I2peak is the maximum recovered current (Supplementary Fig. 2). Hill coefficients were determined by the following equation: Y = Bmax*X^h/(Kd^h + X^h). […]
Compound,"inhibition at 10 µM (10 µM, single cells or mean) [%]","Inhibition of currents (10 µM, single cells or mean, mean) [%]","Inhibition of currents (10 µM, single cells or mean, single cells)","Inhibition of currents (100 µM, single cells)","inhibition at 100 µM (100 µM, single cells) [%]"
C=C(C)COc1ccccc1NC(=O)c1nc[nH]c1C [C2.2],74.6,72.36,71.3399% and 74.8032% and 68.9769% and 72.0779%,–,–
"O=C(/C(=N\O)c1ccccc1)c1ccccc1 [C11, benzil monoxime]",–,–,–,70.9091% and 73.0647% and 75.9259% and 71.7822%,76.2
